Laboratory results reported in paper PMC11094307, “Marine-derived EGFR inhibitors: novel compounds targeting breast cancer growth and drug resistance” (Frontiers in Pharmacology, 2024).

Tests used:
[1] = tested on: A549 cells; test: MTT assay, A549; assay type: cell-based, human; settings: A549 (high EGFR-expressing), 10 μM
Experimental: (§1) The cell lines MCF-7 and A431 were cultured in Dulbecco’s Modified Eagle’s Medium (DMEM, Gibco, USA), while HL-60, H1299, and A549 cells were maintained in RPMI-1640 medium (Gibco, USA). Both mediums were enriched with 10% fetal bovine serum and 1% penicillin/streptomycin. […] All cell cultures were incubated at 37°C in an atmosphere containing 5% CO2.
(§2) Cells in the exponential growth phase were seeded into 96-well plates and allowed to adhere overnight. Subsequently, they were treated in triplicate with various concentrations of the compounds (0, 1.56, 3.13, 6.25, 12.5, 25, 50, 100 µM), […]. After 24 h, 20 µL of Methyl-thiazolyldiphenyl-tetrazolium bromide (MTT, 5 mg/mL, Thermo Fisher Scientific) was added to each well and incubated for a minimum of 4 h. Following the incubation, the medium containing the compounds and MTT was removed from each well, and 200 µL of dimethyl sulfoxide (DMSO) was added. The plates were then shaken for 10 min at 37°C to dissolve the formazan crystals. The absorbance was measured using a microplate reader (BioTek Synergy 4) at a wavelength of 490 nm.

[2] = tested on: PARP1; test: Western blotting of MCF-7 lysates, PARP1; assay type: cell-based, human; settings: for PARP1 WB Normalized: control 0 µM 1.034604877
Experimental: (§3) MCF-7 cell lysates were prepared by rinsing the cells twice with PBS and then solubilizing them in lysis buffer (NP40 supplemented with protease and phosphatase inhibitor cocktails) on ice. The solubilization process involved rotating the lysis buffer/cell mixture end over end for 10 min at 4°C. After centrifugation for 10 min at 4°C to remove insoluble material, the protein concentration of the solubilized protein was determined using a BCA assay. Subsequently, samples were diluted in SDS sample buffer. Equivalent amounts of protein were separated by SDS-PAGE, transferred to PVDF membranes, and probed with the indicated antibody. Prior to incubation with primary antibodies overnight at 4°C, the membranes were blocked with 5% skim milk-TBST. The antibodies and their sources were as follows: PARP1 (1:500, Santa Cruz Biotechnology), Cleaved Caspase-3 (1:1000, Cell Signaling Technology), BAX (1:500, Santa Cruz Biotechnology), BCL-2 (1:500, Santa Cruz Biotechnology), and GAPDH (1:500, Santa Cruz Biotechnology). Following incubation with horseradish peroxidase-conjugated goat anti-mouse or goat anti-rabbit secondary antibody (Santa Cruz Biotechnology), the detected proteins were visualized using the Pierce Enhanced Chemiluminescence (ECL) reagent and a UV Products imaging system. Band intensities were quantified using the National Institutes of Health ImageJ software.

[3] = tested on: MCF-7 cells; test: Annexin V-FITC/PI apoptosis analysis; assay type: cell-based, human; settings: 24 h
Experimental: Apoptosis was evaluated using the Annexin V-FITC/PI Apoptosis Detection Kit (Vazyme). The harvested MCF-7 cells were first resuspended in 1× binding buffer from the kit to achieve a final concentration of 1×10^6 cells/ml. Next, 100 μL of the cell suspension, 5 μL of Annexin V, and 10 μL of PI were mixed and incubated in the dark for 15 min. Subsequently, 400 μL of 1× binding buffer was added to the mixture in preparation for apoptosis analysis.

[4] = tested on: BCL-2; test: Western blotting of MCF-7 lysates, BCL-2; assay type: cell-based, human; settings: for BCL-2 WB Normalized: control 0 µM 0.841817367
Experimental: as §3

[5] = biological target: T1, EGFR extracellular ligand binding domain (Homo sapiens, UniProt P00533); test: SPR binding (Biacore 8K)
T1 construct: His; purchased Sinobiological, China
Description: The extracellular ligand-binding domain of EGFR, tagged with His, and the intracellular tyrosine kinase (TK) domain of EGFR, tagged with GST, were acquired from Sinobiological, China. Kinase assay systems for both wild-type EGFR and its mutants—T790M, L858R, and the dual L858R/T790M—were procured from Promega Corporation, USA. Cell lines including MCF-7, A549, A431, H1299, HL-60, and MCF-10A were obtained from the China Infrastructure Cell Line Resources.
The binding affinities of compounds towards EGFR extracellular ligand binding domain and EGFR intracellular kinase domain were assayed using the SPR-based Biacore 8K instrument (Cytiva). Considering the purchased EGFR was fused with GST tag, GST alone was also immobilized on the chip to do the binding measurement. All the proteins were respectively immobilized on a CM5 sensor chip by using standard amine-coupling at 25°C with running buffer HEPES-P (20 mM HEPES buffer, […], 0.05% surfactant P20, pH 7.4). A reference channel was only activated and blocked to eliminate compound unspecific binding to the surface of the chip. The immobilization level of EGFR extracellular ligand binding domain, EGFR intracellular kinase domain and GST were all about 10,000 RU. […] Extra wash with 50% DMSO was added to remove the last remaining sample in the pipeline.

[6] = tested on: MCF-7 cells; test: MTT assay, MCF-7 growth inhibition; assay type: cell-based, human
Experimental: Both mediums were enriched with 10% fetal bovine serum and 1% penicillin/streptomycin.
Cells in the exponential growth phase were seeded into 96-well plates and allowed to adhere overnight. […] After 24 h, 20 µL of Methyl-thiazolyldiphenyl-tetrazolium bromide (MTT, 5 mg/mL, Thermo Fisher Scientific) was added to each well and incubated for a minimum of 4 h. Following the incubation, the medium containing the compounds and MTT was removed from each well, and 200 µL of dimethyl sulfoxide (DMSO) was added.
All experiments were repeated at least three times, and the data are presented as mean ± standard deviation (SD). The statistical analyses were performed using Origin. EC50 or IC50 values were obtained by fitting the data to a four-parameter Hill model of the graph of log dose against percentage cell viability or inhibition from at least three sets of experiments. Difference between two groups were analyzed by Student’s t test (two-sided) and significance was set at p < 0.05. The specific details about statistical methods are introduced in respective figure legends.

[7] = tested on: HL-60 cells; test: MTT assay, HL-60; assay type: cell-based, human; settings: HL-60 (low EGFR-expressing), 10 μM
Experimental: as §1, §2

T1 sequence (P00533 25-645 limits assumed): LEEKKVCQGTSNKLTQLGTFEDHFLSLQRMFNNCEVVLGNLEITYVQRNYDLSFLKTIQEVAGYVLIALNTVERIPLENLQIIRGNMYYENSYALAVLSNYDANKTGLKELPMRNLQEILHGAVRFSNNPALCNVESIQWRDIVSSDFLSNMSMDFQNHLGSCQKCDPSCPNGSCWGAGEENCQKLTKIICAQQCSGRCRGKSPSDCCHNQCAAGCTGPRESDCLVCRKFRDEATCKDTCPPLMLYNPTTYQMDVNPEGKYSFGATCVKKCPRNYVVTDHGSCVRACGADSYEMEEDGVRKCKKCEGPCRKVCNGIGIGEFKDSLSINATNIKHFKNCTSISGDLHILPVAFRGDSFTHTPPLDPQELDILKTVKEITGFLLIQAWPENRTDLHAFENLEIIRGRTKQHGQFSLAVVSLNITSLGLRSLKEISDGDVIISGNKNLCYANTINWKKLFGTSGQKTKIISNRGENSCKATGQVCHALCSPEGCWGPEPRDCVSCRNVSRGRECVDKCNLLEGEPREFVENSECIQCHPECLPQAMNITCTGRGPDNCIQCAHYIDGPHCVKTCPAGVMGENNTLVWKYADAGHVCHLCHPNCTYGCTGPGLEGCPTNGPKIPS

SMILES: COC(=O)C/C(C)=C/C(=O)O[C@@H]1C[C@@H](C)[C@H]2[C@@H](C=C[C@H](CC(C)C)[C@]2(C)C(=O)/C=C\O)[C@@H]1O [Tandyukisin]
- cell lethality percentage [1]: 72.1% ± 1.8%
- PARP1 WB Gray Value ([2]; 5 µM): 43160.066
- PARP1 WB Normalized ([2]; 5 µM): 0.9844
- PARP1 WB Gray Value ([2]; 10 µM): 33044.409
- PARP1 WB Normalized ([2]; 10 µM): 0.759
- PARP1 WB Gray Value ([2]; 20 µM): 24731.459
- PARP1 WB Normalized ([2]; 20 µM): 0.7232
- expression level of PARP1 ([2]; MCF-7, upon treatment): decreased
- apoptosis ratio (lower right quadrant, early apoptosis: PI negative, annexin V-FITC positive) ([3]; 5 μM): 12.10%
- apoptosis ratio (lower right quadrant, early apoptosis: PI negative, annexin V-FITC positive) ([3]; 10 μM): 14.37%
- apoptosis ratio (lower right quadrant, early apoptosis: PI negative, annexin V-FITC positive) ([3]; 20 μM): 19.24%
- BCL-2 WB Gray Value ([4]; 5 µM): 41097.258
- BCL-2 WB Normalized ([4]; 5 µM): 0.9373
- BCL-2 WB Gray Value ([4]; 10 µM): 21588.48
- BCL-2 WB Normalized ([4]; 10 µM): 0.4959
- BCL-2 WB Gray Value ([4]; 20 µM): 7215.723
- BCL-2 WB Normalized ([4]; 20 µM): 0.211
- Kd [5]: 101 µM
- kon ([5]; Figure 4C-D, read-out: ka, EGFR ligand binding domain): 109 M⁻¹ s⁻¹
- EC50 ([6]; Homo sapiens, MCF7, MTT, 24 h, read-out: EC50, MCF-7 cell viability): 3 ± 1 µM
- cell lethality percentage ([6]; MCF-7, 10 μM): 75.7% ± 2.3%
- cell lethality percentage [7]: 11.1% ± 1.2%
